# From patent US20070054886A1, “Ras antagonists for treating neurodegenerative disorders” (RAMOT AT TEL AVIV UNIVERSITY, LTD., priority 2003, published 2007)
# Tested on: mice subjected to closed head injury (CHI)
# Assay: Neurobehavioral evaluation (neurological severity score, NSS) of CHI mice
# Format: in vivo, mouse
# Description: The neurological severity score (NSS) is a tool for assessing an animal's functional status. It is based on the ability of the animal to perform different motor and behavioral tasks representing motor ability, balancing, and alertness (Beni-Adani et al., 2001). Scores range from zero, achieved by healthy uninjured animals, to a maximum of 10, indicating severe neurological dysfunction, with failure of all tasks. The NSS obtained 1 hr after trauma reflects the initial severity of injury and is inversely correlated with neurological outcome. Animals were evaluated 1 hour after CHI, and again at 24 and 48 hrs and at 5 and 7 days. To assess the effect of FTS on neurological recovery, mice were randomly assigned to treatment with either FTS or vehicle (n=10 per group), administered immediately after the initial NSS evaluation. Each animal was assessed by an observer who was blinded to the treatment it had received. The extent of recovery (ΔNSS) was calculated as the difference between the NSS at 1 hr and at any subsequent time point. Thus, a higher ΔNSS reflects better recovery. This parameter therefore serves as a tool for evaluation of drug effects.
compound,measurement,setting,value
"CC(C)=CCC/C(C)=C/CC/C(C)=C/CSc1ccccc1C(=O)O [FTS, farnesyl-thiosalicylic acid]",median recovery after seven days (ΔNSS),"mice processed for autoradiography and histology (4 FTS-treated), vehicle 0, p<0.05",2
same,mean ΔNSS on day 7 after injury,"mice, FTS 5 mg/kg i.p. 1 hr after CHI, n=10, controls 1.7",4.2
same,NSS 1 hour after injury,"mice, baseline before treatment, FTS-treatment group, n=10, mean±SD, scale 0-10",6.7±0.3
same,reduction of CHI-induced neurological deficits / improvement of neurological status (extent of recovery),"mice, single dose FTS 5 mg/kg, up to 7 days after CHI, P<0.0001",60%
